# Source: patent US9783536B2, “Nitrogen-containing heterocyclic compound or salt thereof” (FUJIFILM Corporation, priority 2013, dated 2017)
# pIC50: −log10 of the molar value.
# Columns and labels:
# human PI3Kα protein = biological target: T1, human PI3Kα protein (Homo sapiens, UniProt P42336); assay: PI3Kα enzyme assay (ADP-Glo); assay type: biochemical; conditions: read-out: PI3Kα enzyme inhibitory activity
# T1 construct: purchased Carna Biosciences, Inc; host or cells: baculovirus expression system
# Outline: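 Biotinylated human PI3Kα (baculovirus-expressed, 4.5 nmol/L) pre-incubated 15 min with compound in Tris-HCl pH 7.5, MgCl2, BSA; reaction 60 min at 25° C with 50 μmol/L PIP2 and 100 μmol/L ATP final. ADP quantified by ADP-Glo luminescence; IC50 calculated.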
# [1] = biological target: T2, GST fusion human ERK2 protein (Homo sapiens, UniProt P28482); assay: ERK2 enzyme assay (1); assay type: biochemical; conditions: ERK2 enzyme assay (1); read-out: ERK2 enzyme inhibitory activity (1)
# T2 construct: purchased Carna Biosciences, Inc; host or cells: E. coli expression system
# Outline: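 IC50 derived from the proportion of phosphorylated 5-FAM peptide, separated from unphosphorylated peptide by microfluidic mobility shift. Compound was first preincubated 15 min at room temperature with 2.5 nmol/L kinase at pH 7.5, then 43.1 μmol/L ATP plus 4.25 μmol/L substrate reacted 120 min at 25 °C.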
# T1 sequence (P42336 whole entry): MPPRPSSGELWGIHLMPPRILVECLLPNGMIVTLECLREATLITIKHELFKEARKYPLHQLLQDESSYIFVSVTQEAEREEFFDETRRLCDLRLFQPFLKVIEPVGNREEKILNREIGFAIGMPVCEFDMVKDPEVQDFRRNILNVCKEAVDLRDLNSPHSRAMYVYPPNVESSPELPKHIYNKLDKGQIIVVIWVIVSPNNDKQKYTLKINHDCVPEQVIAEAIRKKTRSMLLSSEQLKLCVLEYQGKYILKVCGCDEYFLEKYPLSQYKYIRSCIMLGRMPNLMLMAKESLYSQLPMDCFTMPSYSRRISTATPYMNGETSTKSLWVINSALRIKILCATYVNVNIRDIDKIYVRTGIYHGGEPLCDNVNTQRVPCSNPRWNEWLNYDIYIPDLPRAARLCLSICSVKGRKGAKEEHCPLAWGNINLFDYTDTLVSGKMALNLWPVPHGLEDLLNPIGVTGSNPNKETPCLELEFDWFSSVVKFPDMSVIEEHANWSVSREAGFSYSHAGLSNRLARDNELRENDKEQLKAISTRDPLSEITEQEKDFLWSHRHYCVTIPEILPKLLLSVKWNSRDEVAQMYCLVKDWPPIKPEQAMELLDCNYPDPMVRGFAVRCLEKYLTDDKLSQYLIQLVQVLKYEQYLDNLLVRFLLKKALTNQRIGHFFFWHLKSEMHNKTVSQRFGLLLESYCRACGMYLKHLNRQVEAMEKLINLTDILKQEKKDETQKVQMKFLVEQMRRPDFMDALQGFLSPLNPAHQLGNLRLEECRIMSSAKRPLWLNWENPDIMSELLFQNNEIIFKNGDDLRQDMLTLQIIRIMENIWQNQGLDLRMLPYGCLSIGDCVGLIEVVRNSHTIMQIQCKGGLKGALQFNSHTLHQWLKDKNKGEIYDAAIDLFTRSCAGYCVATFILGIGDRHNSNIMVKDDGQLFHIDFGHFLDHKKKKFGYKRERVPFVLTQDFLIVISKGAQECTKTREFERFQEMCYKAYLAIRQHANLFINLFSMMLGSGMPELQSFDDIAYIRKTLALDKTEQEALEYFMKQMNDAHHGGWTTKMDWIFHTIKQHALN
# T1 sequence (P27986 whole entry partner): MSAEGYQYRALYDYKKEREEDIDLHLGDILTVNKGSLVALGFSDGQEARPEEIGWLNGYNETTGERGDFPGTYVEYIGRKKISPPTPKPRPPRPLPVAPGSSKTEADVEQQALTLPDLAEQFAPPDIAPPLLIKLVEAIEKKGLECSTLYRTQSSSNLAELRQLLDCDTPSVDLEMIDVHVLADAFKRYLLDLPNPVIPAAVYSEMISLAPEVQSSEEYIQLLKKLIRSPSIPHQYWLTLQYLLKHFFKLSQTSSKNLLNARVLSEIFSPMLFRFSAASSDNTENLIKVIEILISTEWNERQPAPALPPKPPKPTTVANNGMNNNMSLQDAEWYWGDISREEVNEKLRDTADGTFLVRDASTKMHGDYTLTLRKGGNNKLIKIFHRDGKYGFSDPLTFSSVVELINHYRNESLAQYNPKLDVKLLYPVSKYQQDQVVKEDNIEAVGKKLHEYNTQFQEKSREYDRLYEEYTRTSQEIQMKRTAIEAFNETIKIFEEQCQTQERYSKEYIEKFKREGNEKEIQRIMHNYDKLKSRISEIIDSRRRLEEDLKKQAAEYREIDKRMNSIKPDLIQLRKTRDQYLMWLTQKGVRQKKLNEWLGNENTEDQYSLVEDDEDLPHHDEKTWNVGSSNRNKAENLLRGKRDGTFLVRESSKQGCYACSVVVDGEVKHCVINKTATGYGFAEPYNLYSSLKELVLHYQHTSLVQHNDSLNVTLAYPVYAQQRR
# T2 sequence (P28482 whole entry, the tested form may be a part): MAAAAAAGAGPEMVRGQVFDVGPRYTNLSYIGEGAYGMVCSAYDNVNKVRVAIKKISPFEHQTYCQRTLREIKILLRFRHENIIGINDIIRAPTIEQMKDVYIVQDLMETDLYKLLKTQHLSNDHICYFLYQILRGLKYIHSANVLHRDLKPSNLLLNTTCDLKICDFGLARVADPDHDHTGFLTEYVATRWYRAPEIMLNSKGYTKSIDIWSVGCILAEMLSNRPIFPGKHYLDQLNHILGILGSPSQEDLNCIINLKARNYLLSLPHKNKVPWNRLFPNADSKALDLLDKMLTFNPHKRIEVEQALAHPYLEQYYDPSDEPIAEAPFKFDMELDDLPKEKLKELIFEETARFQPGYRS
Structure (SMILES),pIC50 (human PI3Kα protein),pIC50 [1]
CCC1=C(OC)C(OC)=CC(Nc2cnc3ccc(Nc4nnc(C5CCCC5)s4)nc3c2)C1 (stereo not shown) [Example 0205],> 6.00,> 6.00
c1ccc(Nc2cnc3ccc(Nc4nnc(C5CCCC5)s4)nc3c2)nc1 [Example 0206],4.30 to 5.00,> 6.00
c1cncc(Nc2cnc3ccc(Nc4nnc(C5CCCC5)s4)nc3c2)c1 [Example 0207],> 6.00,> 6.00
c1cc(Nc2cnc3ccc(Nc4nnc(C5CCCC5)s4)nc3c2)ccn1 [Example 0208],> 6.00,> 6.00
c1cnc(Nc2cnc3ccc(Nc4nnc(C5CCCC5)s4)nc3c2)cn1 [Example 0209],> 6.00,> 6.00
c1cc(Nc2cnc3ccc(Nc4nnc(C5CCCC5)s4)nc3c2)ncn1 [Example 0210],> 6.00,> 6.00
"COc1ccccc1Nc1cnc2ccc(Nc3nnc(C4CCCC4)s3)nc2c1 [Example 0219, N^2-(5-cyclopentyl-1,3,4-thiadiazol-2-yl)-N^7-(2-methoxyphenyl)-1,5-naphthyridine-2,7-diamine]",4.30 to 5.00,5.00 to 6.00
"COc1cccc(Nc2cnc3ccc(Nc4nnc(C5CCCC5)s4)nc3c2)c1 [Example 0220, N^2-(5-cyclopentyl-1,3,4-thiadiazol-2-yl)-N^7-(3-methoxyphenyl)-1,5-naphthyridine-2,7-diamine]",> 6.00,5.00 to 6.00
"c1cc(Nc2cnc3ccc(Nc4nnc(C5CCCC5)s4)nc3c2)ccc1CN1CCOCC1 [Example 0221, N^2-(5-cyclopentyl-1,3,4-thiadiazol-2-yl)-N^7-(4-(morpholinomethyl)phenyl)-1,5-naphthyridine-2,7-diamine]",> 6.00,> 6.00
c1n[nH]cc1Nc1cnc2ccc(Nc3nnc(C4CCCCC4)s3)nc2c1 [Example 0223],5.00 to 6.00,> 6.00
"c1cnnc(Nc2cnc3ccc(Nc4nnc(C5CCCC5)s4)nc3c2)c1 [Example 0224, N^2-(5-cyclopentyl-1,3,4-thiadiazol-2-yl)-N^7-(pyridazin-3-yl)-1,5-naphthyridine-2,7-diamine]",> 6.00,> 6.00
"c1n[nH]cc1Nc1cnc2ccc(Nc3nnc(N4CCOCC4)s3)nc2c1 [Example 0225, N^2-(5-morpholino-1,3,4-thiadiazol-2-yl)-N^7-(1H-pyrazol-4-yl)-1,5-naphthyridine-2,7-diamine]",5.00 to 6.00,> 6.00
c1n[nH]cc1Nc1cnc2ccc(Nc3nnc(C4CCCO4)s3)nc2c1 (stereo not shown) [Example 0228],> 6.00,> 6.00
Cc1cc(-c2cnc3ccc(Nc4cc(C(C)C)cnn4)nc3c2)ccn1 [Example 0229],> 6.00,> 6.00
c1nc2ccc(Nc3nnc(CC4CCCC4)s3)nc2cc1-c1cnn(CCCN2CCCC2)c1 [Example 0234],> 6.00,> 6.00
"OCc1nnc(Nc2ccc3ncc(-c4cnn(CCCN5CCCC5)c4)cc3n2)s1 [Example 0239, (5-((7-(1-(3-(Pyrrolidin-1-yl)propyl)-1H-pyrazol-4-yl)-1,5-naphthyridin-2-yl)amino)-1,3,4-thiadiazol-2-yl)methanol]",> 6.00,> 6.00
"c1nc2ccc(Nc3nnc(C4CCCCO4)s3)nc2cc1-c1cnn(CCCN2CCCC2)c1 (stereo not shown) [Example 0244, N-(7-(1-(3-(pyrrolidin-1-yl)propyl)-1H-pyrazol-4-yl)-1,5-naphthyridin-2-yl)-5-(tetrahydro-2H-pyran-2-yl)-1,3,4-thiadiazole-2-amine]",> 6.00,> 6.00
"CNc1nnc(Nc2ccc3ncc(-c4cnn(CCN5CCOCC5)c4)cc3n2)s1 [Example 0249, N^2-methyl-N^5-(7-(1-(2-morpholinoethyl)-1H-pyrazol-4-yl)-1,5-naphthyridin-2-yl)-1,3,4-thiadiazole-2,5-diamine]",> 6.00,> 6.00
"Nc1nnc(Nc2ccc3ncc(-c4cnn(CCN5CCOCC5)c4)cc3n2)s1 [Example 0254, N^2-(7-(1-(2-morpholinoethyl)-1H-pyrazol-4-yl)-1,5-naphthyridin-2-yl)-1,3,4-thiadiazole-2,5-diamine]",> 6.00,> 6.00
"c1nc2ccc(Nc3nnc(CN4CCOCC4)s3)nc2cc1-c1cnn(CCCN2CCCC2)c1 [Example 0255, 5-(morpholinomethyl)-N-(7-(1-(3-(pyrrolidin-1-yl)propyl)-1H-pyrazol-4-yl)-1,5-naphthyridin-2-yl)-1,3,4-thiadiazole-2-amine]",5.00 to 6.00,> 6.00
"c1nc2ccc(Nc3nnc(CC4CC4)s3)nc2cc1-c1cnn(CCCN2CCCC2)c1 [Example 0256, 5-(Cyclopropylmethyl)-N-(7-(1-(3-(pyrrolidin-1-yl)propyl)-1H-pyrazol-4-yl)-1,5-naphthyridin-2-yl)-1,3,4-thiadiazole-2-amine]",> 6.00,> 6.00
CC(O)c1nnc(Nc2ccc3ncc(-c4cnn(CCCN5CCCC5)c4)cc3n2)s1 (stereo not shown) [Example 0259],> 6.00,> 6.00
CC(C)(O)Cc1nnc(Nc2ccc3ncc(-c4cnn(CCCN5CCCC5)c4)cc3n2)s1 [Example 0260],> 6.00,> 6.00

# Next, values leading:
pIC50 (human PI3Kα protein),pIC50 [1],Structure (SMILES)
> 6.00,> 6.00,CCC(C)c1nnc(Nc2ccc3ncc(-c4cnn(CCCN5CCCC5)c4)cc3n2)s1 (stereo not shown) [Example 0263]
5.00 to 6.00,> 6.00,"CC(C)c1nnc(Nc2ccc3nccc(-c4ccccc4)c3n2)s1 [Example 0264, 5-isopropyl-N-(8-phenyl-1,5-naphthyridin-2-yl)-1,3,4-thiadiazole-2-amine]"
> 6.00,> 6.00,"CC(C)c1nnc(Nc2ccc3nccc(-c4cccnc4)c3n2)s1 [Example 0268, 5-isopropyl-N-(8-(pyridin-3-yl)-1,5-naphthyridin-2-yl)-1,3,4-thiadiazole-2-amine]"
> 6.00,> 6.00,"CC(C)c1nnc(Nc2ccc3nccc(-c4ccncc4)c3n2)s1 [Example 0269, 5-isopropyl-N-(8-(pyridin-4-yl)-1,5-naphthyridin-2-yl)-1,3,4-thiadiazole-2-amine]"
> 6.00,> 6.00,COc1ccccc1-c1ccnc2ccc(Nc3nnc(C(C)C)s3)nc12 [Example 0270]
5.00 to 6.00,> 6.00,COc1ccc(-c2ccnc3ccc(Nc4nnc(C(C)C)s4)nc23)cc1 [Example 0272]
> 6.00,> 6.00,CC(C)c1nnc(Nc2ccc3nccc(-c4cnn(C)c4)c3n2)s1 [Example 0273]
> 6.00,5.00 to 6.00,CC(C)c1nnc(Nc2ccc3nccc(-c4cnn(CCN5CCOCC5)c4)c3n2)s1 [Example 0274]
> 6.00,> 6.00,c1cc(-c2ccnc3ccc(Nc4nncs4)nc23)ccn1 [Example 0275]
5.00 to 6.00,5.00 to 6.00,"Cc1cc(Nc2ccc3ncc(-c4cnn(C)c4)cc3n2)n[nH]1 [Example 0277, N-(5-methyl-1H-pyrazol-3-yl)-7-(1-methyl-1H-pyrazol-4-yl)-1,5-naphthyridine-2-amine]"
> 6.00,> 6.00,"CC(C)c1nnc(Nc2ccc3nccc(-c4cncnc4)c3n2)s1 [Example 0278, 5-isopropyl-N-(8-(pyrimidin-5-yl)-1,5-naphthyridin-2-yl)-1,3,4-thiadiazole-2-amine]"
> 6.00,> 6.00,COc1cnccc1-c1ccnc2ccc(Nc3nnc(C(C)C)s3)nc12 [Example 0279]
